Measurements published in the supplement of paper PMC6045584.
± gives the standard deviation of the averaged measurements.

How the values were obtained:
NUTLIN3 [1] = compound: T1, COc1ccc(C2=N[C@@H](c3ccc(Cl)cc3)[C@@H](c3ccc(Cl)cc3)N2C(=O)N2CCNC(=O)C2)c(OC(C)C)c1 [NUTLIN3]; assay: surviving fraction relative to DMSO-only wells; higher = less growth inhibition; conditions: exposure time: 5 days
Method in brief: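 Log-phase tumour cells were seeded at 250–500 per well in 384-well plates and, from 24 hours after seeding, exposed continuously for five days to inhibitors at 0.5, 1, 5, 10, 50, 100, 500 and 1000 nM. Surviving fraction is CellTiter-Glo luminescence normalised to the median of DMSO-only wells. Luminescence was measured after 10 minutes at room temperature, and only lines screened three times with replicate Pearson r >0.7 and median Z' >0.3 were kept.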

DECITABINE = compound: Nc1ncn([C@H]2C[C@H](O)[C@@H](CO)O2)c(=O)n1 [DECITABINE]; assay: area under dose-response curve of surviving fraction (unscaled, Aref=0) (surviving fraction x log10(nM)); higher = more resistant; conditions: exposure time: 5 days; dose range 0.5-1000 nM
Method in brief: (§1)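 Surviving fractions were fitted by 3-parameter logistic regression in the drc R package to give dose-response survival curves. They came from tumour cell lines treated for five days with eight inhibitor concentrations from 0.5 to 1000 nM and read by CellTiter-Glo luminescence against DMSO-only wells. The area under the curve is the unscaled activity area. It was calculated over log10 dose with Aref = 0.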

SALINOMYCIN = compound: CC[C@@H](C(=O)[C@@H](C)[C@@H](O)[C@H](C)[C@@H]1O[C@@H]([C@@H](CC)C(=O)O)CC[C@@H]1C)[C@H]1O[C@]2(C=C[C@@H](O)[C@]3(CC[C@@](C)([C@H]4CC[C@](O)(CC)[C@H](C)O4)O3)O2)[C@H](C)C[C@@H]1C [SALINOMYCIN]; assay: as above; conditions: exposure time: 5 days; dose range 0.5-1000 nM
Method in brief: as §1

[2] = compound: CCN(CC)CCCCNc1ncc2cc(-c3cc(OC)cc(OC)c3)c(NC(=O)NC(C)(C)C)nc2n1; assay: as above; conditions: exposure time: 5 days; dose range 0.5-1000 nM
Method in brief: as §1

FLAVOPIRIDOL = compound: CN1CC[C@H](c2c(O)cc(O)c3c(=O)cc(-c4ccccc4Cl)oc23)[C@H](O)C1 [FLAVOPIRIDOL]; assay: as above; conditions: exposure time: 5 days; dose range 0.5-1000 nM
Method in brief: as §1

DOXORUBICIN = compound: COc1cccc2c1C(=O)c1c(O)c3c(c(O)c1C2=O)C[C@@](O)(C(=O)CO)C[C@@H]3O[C@H]1C[C@H](N)[C@H](O)[C@H](C)O1 [DOXORUBICIN]; assay: as above; conditions: exposure time: 5 days; dose range 0.5-1000 nM
Method in brief: as §1

NUTLIN3 [3] = compound: T1, NUTLIN3; assay: as above; conditions: exposure time: 5 days; dose range 0.5-1000 nM
Method in brief: as §1

ABT-737 = compound: CN(C)CC[C@H](CSc1ccccc1)Nc1ccc(S(=O)(=O)NC(=O)c2ccc(N3CCN(Cc4ccccc4-c4ccc(Cl)cc4)CC3)cc2)cc1[N+](=O)[O-] [ABT-737]; assay: as above; conditions: exposure time: 5 days; dose range 0.5-1000 nM
Method in brief: as §1

2-METHOXYESTRADIOL = compound: COc1cc2c(cc1O)CC[C@@H]1[C@@H]2CC[C@]2(C)[C@@H](O)CC[C@@H]12 [2-METHOXYESTRADIOL]; assay: as above; conditions: exposure time: 5 days; dose range 0.5-1000 nM
Method in brief: as §1

FLUOROURACIL = compound: O=c1[nH]cc(F)c(=O)[nH]1 [FLUOROURACIL]; assay: as above; conditions: exposure time: 5 days; dose range 0.5-1000 nM
Method in brief: as §1

VISMODEGIB = compound: CS(=O)(=O)c1ccc(C(=O)Nc2ccc(Cl)c(-c3ccccn3)c2)c(Cl)c1 [VISMODEGIB]; assay: as above; conditions: exposure time: 5 days; dose range 0.5-1000 nM
Method in brief: as §1

17-AAG = compound: C=CCNC1=C2C[C@@H](C)C[C@H](OC)[C@H](O)[C@@H](C)/C=C(\C)[C@H](OC(N)=O)[C@@H](OC)/C=C\C=C(/C)C(=O)NC(=CC1=O)C2=O [17-AAG]; assay: as above; conditions: exposure time: 5 days; dose range 0.5-1000 nM
Method in brief: as §1

RESVERATROL = compound: Oc1ccc(/C=C/c2cc(O)cc(O)c2)cc1 [RESVERATROL]; assay: as above; conditions: exposure time: 5 days; dose range 0.5-1000 nM
Method in brief: as §1

Test System	surviving fraction (NUTLIN3 [1]; 0.5 nM)	surviving fraction (NUTLIN3 [1]; 1 nM)	surviving fraction (NUTLIN3 [1]; 5 nM)	surviving fraction (NUTLIN3 [1]; 10 nM)	surviving fraction (NUTLIN3 [1]; 50 nM)	surviving fraction (NUTLIN3 [1]; 100 nM)	surviving fraction (NUTLIN3 [1]; 500 nM)	surviving fraction (NUTLIN3 [1]; 1000 nM)	area under dose-response curve (DECITABINE)	area under dose-response curve (SALINOMYCIN)	area under dose-response curve [2]	area under dose-response curve (FLAVOPIRIDOL)	area under dose-response curve (DOXORUBICIN)	area under dose-response curve (NUTLIN3 [3])	area under dose-response curve (ABT-737)	area under dose-response curve (2-METHOXYESTRADIOL)	area under dose-response curve (FLUOROURACIL)	area under dose-response curve (VISMODEGIB)	area under dose-response curve (17-AAG)	area under dose-response curve (RESVERATROL)
MCF7 BREAST	0.881 ± 0.036	0.841 ± 0.038	0.819 ± 0.013	0.821 ± 0.038	0.939 ± 0.021	0.952 ± 0.051	0.865 ± 0.013	0.85 ± 0.039	2.83	2.78	2.89	2.18	1.99	2.87	3.27	2.89	2.99	2.99	1.92	3.21
MDAMB134 BREAST	1.03 ± 0.011	0.923 ± 0.0071	1.013 ± 0.0085	0.84 ± 0.11	1.125 ± 0.0021	1.07 ± 0.032	1.021 ± 0.0042	0.896 ± 0.028	3.67	3.52	2.92	2.96	2.35	3.16	3.13	2.73	2.74	2.56	1.91	3.44
MDAMB231 BREAST	0.97 ± 0.013	0.976 ± 0.028	1.01 ± 0.017	0.977 ± 0.019	1.06 ± 0.017	1.06 ± 0.02	1 ± 0.026	0.995 ± 0.022	3.17	2.97	3.28	2.26	2.1	3.31	3.28	3	3.13	3.04	2.14	3.26
MDAMB361 BREAST	0.854 ± 0.032	0.793 ± 0.036	0.809 ± 0.075	0.844 ± 0.097	0.887 ± 0.12	0.923 ± 0.063	0.907 ± 0.067	0.825 ± 0.025	3.03	2.72	2.94	2.59	2.58	2.83	2.84	2.61	2.28	2.31	1.34	2.99
MDAMB436 BREAST	0.91 ± 0.076	0.835 ± 0.092	0.923 ± 0.033	0.928 ± 0.063	0.924 ± 0.074	0.895 ± 0.12	0.881 ± 0.041	0.941 ± 0.074	3.1	1.74	2.96	2.13	2.04	2.99	3.13	3.01	2.81	2.81	1.77	3.36
MDAMB468 BREAST	0.994 ± 0.026	0.978 ± 0.019	1.07 ± 0.071	1.02 ± 0.067	1.06 ± 0.07	1.04 ± 0.076	1.04 ± 0.049	0.982 ± 0.041	2.63	3.08	3.27	2.15	2.09	3.39	3.62	3.5	2.83	3.19	2.41	3.56
MFM223 BREAST	1.07 ± 0.079	1.04 ± 0.13	1.08 ± 0.058	1.06 ± 0.027	1.12 ± 0.045	1.12 ± 0.073	1.12 ± 0.063	1.07 ± 0.068	3.65	2.35	2	2.3	2	3.57	4.23	3.08	2.92	3.12	1.07	3.94
MG63 BONE	1.01 ± 0.039	1 ± 0.014	1.07 ± 0.046	1.05 ± 0.019	1.06 ± 0.029	1.05 ± 0.018	0.989 ± 0.042	1.01 ± 0.043	1.88	2.67	2.88	2.39	1.9	3.4	3.59	3.27	3.26	3.19	2.62	3.52
MHM BONE	0.995 ± 0.017	0.998 ± 0.019	1.03 ± 0.028	1.02 ± 0.024	1.01 ± 0.023	1.02 ± 0.046	0.963 ± 0.018	0.9187 ± 0.0085	3.4	3.24	3.05	2.77	2.66	3.28	3.61	3.26	3.46	3.42	2.77	3.41
PCI30 HEADNECK	1.01 ± 0.034	0.93 ± 0.019	1.04 ± 0.026	1.06 ± 0.064	1.14 ± 0.062	1.09 ± 0.05	1.02 ± 0.041	1.04 ± 0.092	3.24	2.49	3.28	2.11	2.03	3.44	3.56	2.94	3.3	3.04	1.97	3.54
S68 BREAST	0.854 ± 0.16	0.785 ± 0.32	0.92 ± 0.03	0.976 ± 0.16	1.28 ± 0.18	0.99 ± 0.07	0.936 ± 0.25	1.01 ± 0.22	2.84	2.67	3.23	2.32	1.32	3.12	3.67	3.07	2.83	3.02	0.636	3.12
SKBR3 BREAST	0.795 ± 0.15	1.01 ± 0.2	0.869 ± 0.1	0.844 ± 0.18	0.952 ± 0.14	0.8987 ± 0.0035	0.91 ± 0.029	0.885 ± 0.077	3.29	2.84	3.1	2.07	1.72	2.96	3.52	3.2	2.95	3.07	1.25	3.5
